Laboratory results as given in patent publication US9974778B2, “Substituted pyridinones as MGAT2 inhibitors” (BRISTOL-MYERS SQUIBB COMPANY, priority 2014, dated 2018).

Target: T1, Human MGAT-2 (Homo sapiens, UniProt Q3SYC2)
T1 construct: made in house; host or cells: Sf9 cells (membrane preparation)
Assay: MGAT LCMS Assay
Format: biochemical
Settings: human MGAT2 membranes expressed in Sf9 cells; 100 μM 2-oleoylglycerol, 15 μM oleoyl-coenzyme A; read-out: h-MGAT LCMS IC50
Procedure: Assay plates were run through a fully automated robotics system and shaken for 5 seconds every minute for a total 10 minutes. The reactions were then quenched with 120 μL of ice cold methanol containing 1 μg/mL 1,2-distearoyl-rac-glycerol as the internal standard. Plates were shaken for 2 minutes and spun down to remove protein precipitation. After the spin, samples were transferred to LC/MS compatible PCR plates. For LC/MS analysis, a ThermoFisher Surveyor pump, utilizing a Waters […]® C8, 50×2.1 mm column, was used for the chromatography of enzyme products. The buffer system consists of 0.1% formic acid in water with a mobile phase consisting 0.1% formic acid in methanol. […] The first 0.5 minutes of each injection was diverted to waste to eliminate the presence of Phosphate buffer in the enzymatic reaction. The column was run at 0.6 mL/min and a temperature of 65° C. Mass spectrometry analysis of the samples was performed on a ThermoFisher Quantum Triple quad utilizing APCI (+) as the mode of ionization. […] The ratio of Diolein to internal standard (Peak Area Ratio) is utilized to calculate IC50 values.

T1 sequence (Q3SYC2 whole entry): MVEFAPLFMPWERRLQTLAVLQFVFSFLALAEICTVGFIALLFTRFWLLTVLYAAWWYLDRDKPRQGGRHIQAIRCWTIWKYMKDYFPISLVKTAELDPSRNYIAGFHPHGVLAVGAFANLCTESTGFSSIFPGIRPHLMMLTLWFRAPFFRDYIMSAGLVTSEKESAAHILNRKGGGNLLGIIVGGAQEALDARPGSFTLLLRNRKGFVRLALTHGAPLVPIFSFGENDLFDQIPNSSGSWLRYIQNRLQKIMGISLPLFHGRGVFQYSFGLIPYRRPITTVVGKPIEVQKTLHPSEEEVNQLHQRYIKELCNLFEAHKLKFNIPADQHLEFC

| IC50 [µM] | Compound |
| --- | --- |
| 0.288 | 5-Chloro-6-cyclohexyl-N-(4-methoxyphenyl)-2-oxo-4-(p- tolyl)-1,2-dihydropyridine-3-carboxamide [Example 35] |
| 0.005 | COc1ccc(NC(=O)c2c(-c3ccc(C)cc3)cc(-c3nc(-c4ccccc4)oc3C)[nH]c2=O)cc1 [Example 4, N-(4-Methoxyphenyl)-6-(5-methyl-2-phenyloxazol-4-yl)-2-oxo-4-(p-tolyl)-1,2-dihydropyridine-3-carboxamide] |
| 0.05 | CCOc1ccc(NC(=O)c2c(-c3cnc(N(C)C)s3)cc(C3CCCCC3)[nH]c2=O)cc1 [Example 8, 6-Cyclohexyl-4-(2-(dimethylamino)thiazol-5-yl)-N-(4-ethoxyphenyl)-2-oxo-1,2-dihydropyridine-3-carboxamide] |
| 0.293 | CCOc1ccc(NC(=O)c2c(-c3cnc(N(C)C)s3)cc(C3(O)CCCCC3)[nH]c2=O)cc1 [Example 9, 4-(2-(Dimethylamino)thiazol-5-yl)-N-(4-ethoxyphenyl)-6-(1-hydroxycyclohexyl)-2-oxo-1,2-dihydropyridine-3-carboxamide] |
| 0.017 | CCOc1ccc(NC(=O)c2c(-c3cnc(N(C)C)s3)cc(C3(F)CCCCC3)[nH]c2=O)cc1 [Example 10, 4-(2-(Dimethylamino)thiazol-5-yl)-N-(4-ethoxyphenyl)-6-(1-fluorocyclohexyl)-2-oxo-1,2-dihydropyridine-3-carboxamide] |
| 0.1 | CCCCCc1ccc(-c2cc(-c3ccc(C)cc3)c(NC(=O)c3ccccc3)c(=O)[nH]2)cc1 [Example 14, N-(2-Oxo-6-(4-pentylphenyl)-4-(p-tolyl)-1,2-dihydropyridin-3-yl)benzamide] |
| 0.005 | CCOc1ccc(NC(=O)c2c(-c3ccc(C)cc3)c(I)c(C3CCCCC3)[nH]c2=O)cc1 [Example 15, 6-Cyclohexyl-N-(4-ethoxyphenyl)-5-iodo-2-oxo-4-(p-tolyl)-1,2-dihydropyridine-3-carboxamide] |
| 0.024 | CCCCCc1ccc(-c2cc(-c3ccc(C)cc3)c(C(=O)Nc3cccnc3)c(=O)[nH]2)cc1 [Example 23, 2-Oxo-6-(4-pentylphenyl)-N-(pyridin-3-yl)-4-(p-tolyl)-1,2-dihydropyridine-3-carboxamide] |
| 0.072 | CCOc1ccc(NC(=O)c2c(-c3ccc(C)cc3)c(C)c(C3CCCCC3)[nH]c2=O)cc1 [Example 25, 6-Cyclohexyl-N-(4-ethoxyphenyl)-5-methyl-2-oxo-4-(p-tolyl)-1,2-dihydropyridine-3-carboxamide] |
| 0.082 | C=Cc1c(-c2ccc(CCCCC)cc2)[nH]c(=O)c(C(=O)Nc2ccc(OCC)cc2)c1-c1ccc(C)cc1 [Example 26, N-(4-Ethoxyphenyl)-2-oxo-6-(4-pentylphenyl)-4-(p-tolyl)-5-vinyl-1,2-dihydropyridine-3-carboxamide] |
| 0.086 | CCCCCc1ccc(-c2cc(-c3ccc(C)cc3)c(C(=O)Nc3ccc(OCC)cc3)c(=O)[nH]2)cc1 [Example 27, N-(4-Ethoxyphenyl)-2-oxo-6-(4-pentylphenyl)-4-(p-tolyl)-1,2-dihydropyridine-3-carboxamide] |
| 0.137 | CCOc1ccc(NC(=O)c2c(-c3ccc(C)cc3)cc(C3CCCCC3)[nH]c2=O)cc1 [Example 28, 6-Cyclohexyl-N-(4-ethoxyphenyl)-2-oxo-4-(p-tolyl)-1,2-dihydropyridine-3-carboxamide] |
| 0.144 | CCOc1ccc(NC(=O)c2c(-c3ccc(C)cc3)cc(C3CCCC3)[nH]c2=O)cc1 [Example 29, 6-Cyclopentyl-N-(4-ethoxyphenyl)-2-oxo-4-(p-tolyl)-1,2-dihydropyridine-3-carboxamide] |
| 0.15 | CCCCCc1ccc(-c2cc(-c3ccc(C)cc3)c(-c3nn[nH]n3)c(=O)[nH]2)cc1 [Example 30, 6-(4-Pentylphenyl)-3-(2H-tetrazol-5-yl)-4-(p-tolyl)pyridin-2(1H)-one] |
| 0.178 | CC/C=C/c1c(-c2ccc(CCCCC)cc2)[nH]c(=O)c(C(=O)Nc2ccc(OCC)cc2)c1-c1ccc(C)cc1 [Example 31, (E)-5-(But-1-en-1-yl)-N-(4-ethoxyphenyl)-2-oxo-6-(4-pentylphenyl)-4-(p-tolyl)-1,2-dihydropyridine-3-carboxamide] |
| 0.193 | CCCCCc1ccc(-c2[nH]c(=O)c(C(=O)Nc3ccc(OCC)cc3)c(-c3ccc(C)cc3)c2-c2ccccc2)cc1 [Example 32, N-(4-Ethoxyphenyl)-2-oxo-6-(4-pentylphenyl)-5-phenyl-4-(p-tolyl)-1,2-dihydropyridine-3-carboxamide] |
| 0.218 | CCCCCc1ccc(-c2cc(-c3ccc(C)cc3)c(C(=O)Nc3ccccc3)c(=O)[nH]2)cc1 [Example 33, 2-Oxo-6-(4-pentylphenyl)-N-phenyl-4-(p-tolyl)-1,2-dihydropyridine-3-carboxamide] |
| 0.223 | COc1ccc(NC(=O)c2c(-c3ccc(C)cc3)cc(C3CCCCC3)[nH]c2=O)cc1 [Example 34, 6-Cyclohexyl-N-(4-methoxyphenyl)-2-oxo-4-(p-tolyl)-1,2-dihydropyridine-3-carboxamide] |

| Compound | IC50 [µM] |
| --- | --- |
| COc1ccc(NC(=O)c2c(-c3ccc(C)cc3)cc(-c3ccc(OCCCC(F)(F)F)cc3)[nH]c2=O)cc1 [Example 2, N-(4-Methoxyphenyl)-2-oxo-4-(p-tolyl)-6-(4-(4,4,4-trifluorobutoxy)phenyl)-1,2-dihydropyridine-3-carboxamide] | 0.03 |
| COc1ccc(NC(=O)c2c(-c3ccc(C)cc3)c(F)c(-c3ccc(OCCCC(F)(F)F)cc3)[nH]c2=O)cc1 [Example 3, 5-Fluoro-N-(4-methoxyphenyl)-2-oxo-4-(p-tolyl)-6-(4-(4,4,4-trifluorobutoxy)phenyl)-1,2-dihydropyridine-3-carboxamide] | 0.019 |
| CCOc1ccc(NC(=O)c2c(-c3ccc(C)cc3)cc(-c3ccc(OCCCC(F)(F)F)cc3)[nH]c2=O)cc1 [Example 5, N-(4-Ethoxyphenyl)-2-oxo-4-(p-tolyl)-6-(4-(4,4,4-trifluorobutoxy)phenyl)-1,2-dihydropyridine-3-carboxamide] | 0.021 |
| Cc1ccc(-c2c(Br)c(-c3ccc(OCCCC(F)(F)F)cc3)[nH]c(=O)c2-c2nnn[nH]2)cc1 [Example 6, 5-Bromo-3-(1H-tetrazol-5-yl)-4-(p-tolyl)-6-(4-(4,4,4-trifluorobutoxy)phenyl)pyridin-2(1H)-one] | 0.079 |
| Cc1ccc(-c2c(C)c(-c3ccc(OCCCC(F)(F)F)cc3)[nH]c(=O)c2-c2nnn[nH]2)cc1 [Example 7, 5-Methyl-3-(1H-tetrazol-5-yl)-4-(p-tolyl)-6-(4-(4,4,4-trifluorobutoxy)phenyl)pyridin-2(1H)-one] | 0.009 |
| CC(C)(C)c1ccc(-c2cc(-c3ccc(OCCCC(F)(F)F)cc3)[nH]c(=O)c2C(=O)O)cc1 [Example 11, 4-(4-(tert-Butyl)phenyl)-2-oxo-6-(4-(4,4,4-trifluorobutoxy)phenyl)-1,2-dihydropyridine-3-carboxylic acid] | 0.461 |
| CC(C)(C)c1ccc(-c2cc(-c3ccc(OCCCC(F)(F)F)cc3)[nH]c(=O)c2C(=O)NS(=O)(=O)C2CC2)cc1 [Example 12, 4-(4-(tert-Butyl)phenyl)-N-(cyclopropylsulfonyl)-2-oxo-6-(4-(4,4,4-trifluorobutoxy)phenyl)-1,2-dihydropyridine-3-carboxamide] | 0.056 |
| Cc1ccc(-c2c(F)c(-c3ccc(OCCCC(F)(F)F)cc3)[nH]c(=O)c2-c2nnn[nH]2)cc1 [Example 17, 5-Fluoro-3-(1H-tetrazol-5-yl)-4-(p-tolyl)-6-(4-(4,4,4-trifluorobutoxy)phenyl)pyridin-2(1H)-one] | 0.298 |
| Cc1ccc(-c2c(Cl)c(-c3ccc(OCCCC(F)(F)F)cc3)[nH]c(=O)c2-c2nnn[nH]2)cc1 [Example 19, 5-Chloro-3-(1H-tetrazol-5-yl)-4-(p-tolyl)-6-(4-(4,4,4-trifluorobutoxy)phenyl)pyridin-2(1H)-one] | 0.1 |
| CCc1ccc(-c2cc(-c3ccc(OCCCC(F)(F)F)cc3F)[nH]c(=O)c2-c2nn[nH]n2)s1 [Example 20, 4-(5-Ethylthiophen-2-yl)-6-(2-fluoro-4-(4,4,4-trifluorobutoxy)phenyl)-3-(2H-tetrazol-5-yl)pyridin-2(1H)-one] | 0.005 |
| CCc1ccc(-c2cc(-c3ccc(OCCCC(F)(F)F)cc3)[nH]c(=O)c2C(=O)NS(C)(=O)=O)s1 [Example 21, 4-(5-Ethylthiophen-2-yl)-N-(methylsulfonyl)-2-oxo-6-(4-(4,4,4-trifluorobutoxy)phenyl)-1,2-dihydropyridine-3-carboxamide] | 0.021 |
| CCc1ccc(-c2cc(-c3ccc(OCCCC(F)(F)F)cc3Cl)[nH]c(=O)c2-n2nn[nH]c2=O)s1 [Example 22, 6-(2-Chloro-4-(4,4,4-trifluorobutoxy)phenyl)-4-(5-ethylthiophen-2-yl)-3-(5-oxo-4,5-dihydro-1H-tetrazol-1-yl)pyridin-2(1H)-one] | 0.252 |
| CCOc1ccc(NC(=O)c2c(-c3ccc(C)cc3)c(C)c(-c3ccc(OCCCC(F)(F)F)cc3)[nH]c2=O)cc1 [Example 24, N-(4-Ethoxyphenyl)-5-methyl-2-oxo-4-(p-tolyl)-6-(4-(4,4,4-trifluorobutoxy)phenyl)-1,2-dihydropyridine-3-carboxamide] | 0.039 |
| Cc1ccc(-c2c(Br)c(-c3ccc(OCCCC(F)(F)F)cc3)[nH]c(=O)c2-c2nn[nH]n2)cc1C [Example 36, 5-Bromo-4-(3,4-dimethylphenyl)-3-(2H-tetrazol-5-yl)-6-(4-(4,4,4-trifluorobutoxy)phenyl)pyridin-2(1H)-one] | 0.311 |
